In patent US9790178B2, “Pyrrolidinyl urea, thiourea, guanidine and cyanoguanidine compounds as TrkA kinase inhibitors” (Array BioPharma Inc., priority 2012, dated 2017):

What was measured:
Assay in all cases: KinaseProfiler off-target kinase profiling
Type in all cases: biochemical
Details in all cases: 10 μM, ATP near Km
PDGFRalpha = target: T1, PDGFRalpha (Homo sapiens, UniProt P16234)
T1 construct: purchased Millipore, Inc. (KinaseProfiler service)
Procedure: (§1) A representative compound of the invention (Example 20) was tested for off-target kinase activity at a concentration of 10 μM by Millipore, Inc. in their KinaseProfiler™ service against all the kinases available in their full kinase panel. The compound was run in duplicate at a concentration of ATP near the Km for each individual kinase according to Millipore's specifications. The results are shown in Table B. Data are reported as percent of control (POC) and are the average of the two replicates.

TrkB = target: T2, TrkB (Homo sapiens, UniProt Q16620)
T2 construct: purchased Millipore, Inc. (KinaseProfiler service)
Procedure: as §1

PAK2 = target: T3, PAK2 (Homo sapiens, UniProt Q13177)
T3 construct: purchased Millipore, Inc. (KinaseProfiler service)
Procedure: as §1

Bmx = target: T4, Bmx (Homo sapiens, UniProt P51813)
T4 construct: purchased Millipore, Inc. (KinaseProfiler service)
Procedure: as §1

PKCalpha = target: T5, PKCalpha (Homo sapiens, UniProt P17252)
T5 construct: purchased Millipore, Inc. (KinaseProfiler service)
Procedure: as §1

IKKbeta = target: T6, IKKbeta (Homo sapiens, UniProt O14920)
T6 construct: purchased Millipore, Inc. (KinaseProfiler service)
Procedure: as §1

PKAC-alpha = target: T7, PKAC-alpha (Homo sapiens, UniProt P17612)
T7 construct: purchased Millipore, Inc. (KinaseProfiler service)
Procedure: as §1

NEK6 = target: T8, NEK6 (Homo sapiens, UniProt Q9HC98)
T8 construct: purchased Millipore, Inc. (KinaseProfiler service)
Procedure: as §1

PRKG1beta = target: T9, PRKG1beta (Homo sapiens, UniProt Q13976)
T9 construct: purchased Millipore (KinaseProfiler service)
Procedure: as §1

ERK1 = target: T10, ERK1 (Homo sapiens, UniProt P27361)
T10 construct: purchased Millipore, Inc. (KinaseProfiler service)
Procedure: as §1

FGFR3 = target: T11, FGFR3 (Homo sapiens, UniProt P22607)
T11 construct: purchased Millipore, Inc. (KinaseProfiler service)
Procedure: as §1

PTK5 = target: T12, PTK5 (Homo sapiens, UniProt P42685)
T12 construct: purchased Millipore (KinaseProfiler service)
Procedure: as §1

MuSK = target: T13, MuSK (Homo sapiens, UniProt O15146)
T13 construct: purchased Millipore, Inc. (KinaseProfiler service)
Procedure: as §1

TBK1 = target: T14, TBK1 (Homo sapiens, UniProt Q9UHD2)
T14 construct: purchased Millipore, Inc. (KinaseProfiler service)
Procedure: as §1

Haspin = target: T15, Haspin (Homo sapiens, UniProt Q8TF76)
T15 construct: purchased Millipore, Inc. (KinaseProfiler service)
Procedure: as §1

MST3 = target: T16, MST3 (Homo sapiens, UniProt Q9Y6E0)
T16 construct: purchased Millipore, Inc. (KinaseProfiler service)
Procedure: as §1

DRAK1 = target: T17, DRAK1 (Homo sapiens, UniProt Q9UEE5)
T17 construct: purchased Millipore, Inc. (KinaseProfiler service)
Procedure: as §1

Fyn = target: T18, Fyn (Homo sapiens, UniProt P06241)
T18 construct: purchased Millipore, Inc. (KinaseProfiler service)
Procedure: as §1

Abl = target: T19, Abl (Homo sapiens, UniProt P00519)
T19 construct: purchased Millipore, Inc. (KinaseProfiler service)
Procedure: as §1

IGF-1R = target: T20, IGF-1R (Homo sapiens, UniProt P08069)
T20 construct: purchased Millipore, Inc. (KinaseProfiler service)
Procedure: as §1

Rsk4 = target: T21, Rsk4 (Homo sapiens, UniProt Q9UK32)
T21 construct: purchased Millipore, Inc. (KinaseProfiler service)
Procedure: as §1

Pyk2 = target: T22, Pyk2 (Homo sapiens, UniProt Q14289)
T22 construct: purchased Millipore (KinaseProfiler service)
Procedure: as §1

PKCiota = target: T23, PKCiota (Homo sapiens, UniProt P41743)
T23 construct: purchased Millipore (KinaseProfiler service)
Procedure: as §1

MRCKbeta = target: T24, MRCKbeta (Homo sapiens, UniProt Q9Y5S2)
T24 construct: purchased Millipore, Inc. (KinaseProfiler service)
Procedure: as §1

CK2 = target: T25, CK2 (Homo sapiens, UniProt P68400)
T25 construct: purchased Millipore, Inc. (KinaseProfiler service)
Procedure: as §1

Fms = target: T26, Fms (Homo sapiens, UniProt P07333)
T26 construct: purchased Millipore, Inc. (KinaseProfiler service)
Procedure: as §1

JNK1alpha1 = target: T27, JNK1alpha1 (Homo sapiens, UniProt P45983)
T27 construct: purchased Millipore, Inc. (KinaseProfiler service)
Procedure: as §1

CK1delta = target: T28, CK1delta (Homo sapiens, UniProt P48730)
T28 construct: purchased Millipore, Inc. (KinaseProfiler service)
Procedure: as §1

DDR2 = target: T29, DDR2 (Homo sapiens, UniProt Q16832)
T29 construct: purchased Millipore, Inc. (KinaseProfiler service)
Procedure: as §1

CK2alpha2 = target: T30, CK2alpha2 (Homo sapiens, UniProt P19784)
T30 construct: purchased Millipore, Inc. (KinaseProfiler service)
Procedure: as §1

IKKalpha = target: T31, IKKalpha (Homo sapiens, UniProt O15111)
T31 construct: purchased Millipore, Inc. (KinaseProfiler service)
Procedure: as §1

DAPK3 = target: T32, DAPK3 (Homo sapiens, UniProt O43293)
T32 construct: purchased Millipore, Inc. (KinaseProfiler service)
Procedure: as §1

PKD2 = target: T33, PKD2 (Homo sapiens, UniProt Q9BZL6)
T33 construct: purchased Millipore (KinaseProfiler service)
Procedure: as §1

NLK = target: T34, NLK (Homo sapiens, UniProt Q9UBE8)
T34 construct: purchased Millipore, Inc. (KinaseProfiler service)
Procedure: as §1

JAK2 = target: T35, JAK2 (Homo sapiens, UniProt O60674)
T35 construct: purchased Millipore, Inc. (KinaseProfiler service)
Procedure: as §1

CHK1 = target: T36, CHK1 (Homo sapiens, UniProt O14757)
T36 construct: purchased Millipore, Inc. (KinaseProfiler service)
Procedure: as §1

Pim-2 = target: T37, Pim-2 (Homo sapiens, UniProt Q9P1W9)
T37 construct: purchased Millipore, Inc. (KinaseProfiler service)
Procedure: as §1

AURKA = target: T38, AURKA (Homo sapiens, UniProt O14965)
T38 construct: purchased Millipore, Inc. (KinaseProfiler service)
Procedure: as §1

PAK4 = target: T39, PAK4 (Homo sapiens, UniProt O96013)
T39 construct: purchased Millipore, Inc. (KinaseProfiler service)
Procedure: as §1

PASK = target: T40, PASK (Homo sapiens, UniProt Q96RG2)
T40 construct: purchased Millipore, Inc. (KinaseProfiler service)
Procedure: as §1

mTOR/FKBP12 = target: T41, mTOR/FKBP12 (Homo sapiens, UniProt P42345)
T41 construct: purchased Millipore, Inc. (KinaseProfiler service)
Procedure: as §1

T20 sequence (P08069 31-1367): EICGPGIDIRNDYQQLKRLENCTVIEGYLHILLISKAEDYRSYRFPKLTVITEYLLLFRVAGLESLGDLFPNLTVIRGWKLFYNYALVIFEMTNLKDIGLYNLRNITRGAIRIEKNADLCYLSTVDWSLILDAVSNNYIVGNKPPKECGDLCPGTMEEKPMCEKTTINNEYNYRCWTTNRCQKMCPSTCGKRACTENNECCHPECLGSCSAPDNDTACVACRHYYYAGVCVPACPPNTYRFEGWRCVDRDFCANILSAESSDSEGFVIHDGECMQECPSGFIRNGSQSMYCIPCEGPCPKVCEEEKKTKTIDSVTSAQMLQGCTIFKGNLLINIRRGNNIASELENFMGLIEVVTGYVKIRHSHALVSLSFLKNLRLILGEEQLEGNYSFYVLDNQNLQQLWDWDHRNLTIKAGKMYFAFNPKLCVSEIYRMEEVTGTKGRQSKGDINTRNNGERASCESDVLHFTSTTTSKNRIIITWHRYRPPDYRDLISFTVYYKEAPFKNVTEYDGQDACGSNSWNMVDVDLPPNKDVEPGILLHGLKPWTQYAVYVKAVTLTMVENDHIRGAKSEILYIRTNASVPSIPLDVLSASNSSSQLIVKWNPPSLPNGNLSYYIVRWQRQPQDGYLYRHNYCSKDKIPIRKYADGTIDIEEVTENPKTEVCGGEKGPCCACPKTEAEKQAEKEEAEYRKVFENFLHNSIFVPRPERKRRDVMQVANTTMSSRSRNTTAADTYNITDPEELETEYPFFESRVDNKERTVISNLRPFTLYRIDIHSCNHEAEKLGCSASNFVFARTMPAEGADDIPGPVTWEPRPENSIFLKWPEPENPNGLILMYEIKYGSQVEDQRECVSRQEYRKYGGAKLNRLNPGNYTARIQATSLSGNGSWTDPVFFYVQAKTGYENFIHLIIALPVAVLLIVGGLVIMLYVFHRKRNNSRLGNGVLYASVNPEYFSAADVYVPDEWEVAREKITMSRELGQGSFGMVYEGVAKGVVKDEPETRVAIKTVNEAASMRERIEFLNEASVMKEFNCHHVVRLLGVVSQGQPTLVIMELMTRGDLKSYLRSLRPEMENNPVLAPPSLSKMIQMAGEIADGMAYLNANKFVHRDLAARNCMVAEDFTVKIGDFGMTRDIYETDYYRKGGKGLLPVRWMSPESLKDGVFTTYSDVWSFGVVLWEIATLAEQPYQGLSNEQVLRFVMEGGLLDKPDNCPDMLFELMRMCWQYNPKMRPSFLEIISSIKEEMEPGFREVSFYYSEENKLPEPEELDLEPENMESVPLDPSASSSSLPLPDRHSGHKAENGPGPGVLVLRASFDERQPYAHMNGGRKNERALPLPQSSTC
T21 sequence (Q9UK32 whole entry): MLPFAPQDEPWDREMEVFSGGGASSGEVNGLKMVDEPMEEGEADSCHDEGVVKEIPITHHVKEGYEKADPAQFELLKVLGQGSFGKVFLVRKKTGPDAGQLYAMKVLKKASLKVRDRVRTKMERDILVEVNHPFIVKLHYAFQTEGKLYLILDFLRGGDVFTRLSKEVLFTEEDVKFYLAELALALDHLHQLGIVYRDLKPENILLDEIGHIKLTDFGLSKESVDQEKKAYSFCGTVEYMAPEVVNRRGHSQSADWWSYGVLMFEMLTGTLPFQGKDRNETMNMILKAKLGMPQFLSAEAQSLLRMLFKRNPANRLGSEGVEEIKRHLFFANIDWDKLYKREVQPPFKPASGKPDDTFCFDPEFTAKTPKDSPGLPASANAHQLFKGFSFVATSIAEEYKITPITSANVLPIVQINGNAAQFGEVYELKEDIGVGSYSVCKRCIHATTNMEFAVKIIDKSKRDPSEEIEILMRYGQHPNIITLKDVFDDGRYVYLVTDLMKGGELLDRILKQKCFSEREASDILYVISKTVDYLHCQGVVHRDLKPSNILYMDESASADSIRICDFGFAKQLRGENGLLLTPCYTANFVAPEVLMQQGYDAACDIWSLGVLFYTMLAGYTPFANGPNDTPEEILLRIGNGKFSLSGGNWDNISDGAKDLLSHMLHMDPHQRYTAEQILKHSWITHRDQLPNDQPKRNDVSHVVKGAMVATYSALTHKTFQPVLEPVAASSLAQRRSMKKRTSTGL
T41 sequence (P42345 1362-2549 limits assumed): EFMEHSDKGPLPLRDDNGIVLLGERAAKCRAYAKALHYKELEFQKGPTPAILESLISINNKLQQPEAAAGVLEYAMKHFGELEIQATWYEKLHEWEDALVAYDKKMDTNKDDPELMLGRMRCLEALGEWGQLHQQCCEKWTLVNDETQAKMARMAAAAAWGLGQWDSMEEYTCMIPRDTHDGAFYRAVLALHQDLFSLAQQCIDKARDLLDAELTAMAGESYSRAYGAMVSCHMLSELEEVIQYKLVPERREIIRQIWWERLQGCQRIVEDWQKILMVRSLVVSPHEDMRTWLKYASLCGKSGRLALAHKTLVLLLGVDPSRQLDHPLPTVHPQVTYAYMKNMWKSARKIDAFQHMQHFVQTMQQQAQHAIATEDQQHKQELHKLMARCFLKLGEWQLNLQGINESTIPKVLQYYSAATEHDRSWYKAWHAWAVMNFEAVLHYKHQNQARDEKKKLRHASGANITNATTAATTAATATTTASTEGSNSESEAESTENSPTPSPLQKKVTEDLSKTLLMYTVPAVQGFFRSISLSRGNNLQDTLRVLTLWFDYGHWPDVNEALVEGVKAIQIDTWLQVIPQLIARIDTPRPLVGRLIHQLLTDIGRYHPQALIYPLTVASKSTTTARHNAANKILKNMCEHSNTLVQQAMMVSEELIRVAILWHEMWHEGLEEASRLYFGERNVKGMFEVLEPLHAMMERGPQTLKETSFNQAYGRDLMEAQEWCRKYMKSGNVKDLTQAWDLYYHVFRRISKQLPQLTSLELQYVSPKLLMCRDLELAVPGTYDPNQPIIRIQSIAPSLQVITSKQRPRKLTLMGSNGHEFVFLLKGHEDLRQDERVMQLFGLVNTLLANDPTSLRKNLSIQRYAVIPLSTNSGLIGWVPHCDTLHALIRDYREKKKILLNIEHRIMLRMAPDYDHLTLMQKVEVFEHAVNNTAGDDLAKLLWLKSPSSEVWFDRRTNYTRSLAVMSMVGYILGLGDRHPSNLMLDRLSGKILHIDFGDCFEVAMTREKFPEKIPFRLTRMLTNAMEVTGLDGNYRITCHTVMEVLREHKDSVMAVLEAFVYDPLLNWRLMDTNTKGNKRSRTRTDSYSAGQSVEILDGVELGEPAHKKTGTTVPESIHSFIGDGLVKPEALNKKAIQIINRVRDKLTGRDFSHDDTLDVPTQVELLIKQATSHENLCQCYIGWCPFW
T15 sequence (Q8TF76 whole entry): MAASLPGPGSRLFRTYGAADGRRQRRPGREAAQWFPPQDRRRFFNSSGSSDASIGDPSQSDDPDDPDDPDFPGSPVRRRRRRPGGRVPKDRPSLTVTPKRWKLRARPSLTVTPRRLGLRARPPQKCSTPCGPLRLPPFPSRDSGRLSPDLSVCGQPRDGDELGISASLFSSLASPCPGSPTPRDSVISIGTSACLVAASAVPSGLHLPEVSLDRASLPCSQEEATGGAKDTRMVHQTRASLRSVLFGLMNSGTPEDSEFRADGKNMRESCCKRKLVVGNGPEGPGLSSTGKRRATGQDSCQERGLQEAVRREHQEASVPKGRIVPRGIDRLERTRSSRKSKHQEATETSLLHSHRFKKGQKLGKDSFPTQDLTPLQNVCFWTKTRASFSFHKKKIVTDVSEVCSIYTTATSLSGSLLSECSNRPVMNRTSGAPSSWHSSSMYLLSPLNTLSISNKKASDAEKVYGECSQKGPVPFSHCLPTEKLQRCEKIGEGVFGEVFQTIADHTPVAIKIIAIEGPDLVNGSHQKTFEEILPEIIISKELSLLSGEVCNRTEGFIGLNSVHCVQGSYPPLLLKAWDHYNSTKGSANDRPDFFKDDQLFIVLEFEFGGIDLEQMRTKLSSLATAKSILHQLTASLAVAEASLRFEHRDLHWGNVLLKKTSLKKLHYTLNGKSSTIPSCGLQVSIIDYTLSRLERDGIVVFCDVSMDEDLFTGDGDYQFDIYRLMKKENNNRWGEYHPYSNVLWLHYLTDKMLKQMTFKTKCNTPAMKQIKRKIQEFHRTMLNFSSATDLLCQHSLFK
T17 sequence (Q9UEE5 whole entry): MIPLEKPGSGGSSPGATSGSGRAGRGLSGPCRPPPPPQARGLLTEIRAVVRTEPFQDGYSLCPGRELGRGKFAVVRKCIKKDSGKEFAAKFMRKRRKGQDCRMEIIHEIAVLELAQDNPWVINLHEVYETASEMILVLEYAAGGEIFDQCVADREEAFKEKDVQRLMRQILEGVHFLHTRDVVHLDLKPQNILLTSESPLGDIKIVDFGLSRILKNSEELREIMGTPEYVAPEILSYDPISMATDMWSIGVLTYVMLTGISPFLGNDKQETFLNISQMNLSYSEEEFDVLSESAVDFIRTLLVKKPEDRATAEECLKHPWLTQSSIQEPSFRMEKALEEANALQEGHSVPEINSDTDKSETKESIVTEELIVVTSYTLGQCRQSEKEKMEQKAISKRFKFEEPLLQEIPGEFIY
T30 sequence (P19784 whole entry): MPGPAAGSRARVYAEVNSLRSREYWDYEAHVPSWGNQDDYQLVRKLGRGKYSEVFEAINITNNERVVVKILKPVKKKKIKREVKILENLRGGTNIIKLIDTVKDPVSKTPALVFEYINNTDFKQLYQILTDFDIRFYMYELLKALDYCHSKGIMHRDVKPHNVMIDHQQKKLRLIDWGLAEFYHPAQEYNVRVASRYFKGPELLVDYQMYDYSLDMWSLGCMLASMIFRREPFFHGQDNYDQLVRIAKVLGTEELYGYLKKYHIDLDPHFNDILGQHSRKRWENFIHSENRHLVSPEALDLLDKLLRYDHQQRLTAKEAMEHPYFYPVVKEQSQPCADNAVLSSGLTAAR

In the case of `COCCN1C[C@@H](NC(=O)Nc2c(-c3ccccc3)nc3c(C)nccn23)[C@H](c2ccc(F)c(F)c2)C1` [Example 20, 1-((3S,4R)-4-(3,4-difluorophenyl)-1-(2-methoxyethyl)pyrrolidin-3-yl)-3-(8-methyl-2-phenylimidazo[1,2-a]pyrazin-3-yl)urea], the “Avg. POC” value (PDGFRalpha) is reported as 105.5 POC, the “Avg. POC” value (TrkB) is reported as 0.5 POC and the “Avg. POC” value (PAK2) is reported as 100.5 POC. For the same compound, the “Avg. POC” value (Bmx) was 103.5 POC, the “Avg. POC” value (PKCalpha) was 103.5 POC and the “Avg. POC” value (IKKbeta) was 107.5 POC. For the same compound, the “Avg. POC” value (PKAC-alpha) was 114 POC, the “Avg. POC” value (NEK6) was 92.5 POC and the “Avg. POC” value (PRKG1beta) was 124 POC. The “Avg. POC” value (ERK1) was 115 POC, the “Avg. POC” value (FGFR3) was 101 POC and the “Avg. POC” value (PTK5) was 111 POC. For the same compound, the “Avg. POC” value (MuSK) was 108.5 POC, the “Avg. POC” value (TBK1) was 114 POC and the “Avg. POC” value (Haspin) was 93.5 POC. The “Avg. POC” value (MST3) was 104 POC, the “Avg. POC” value (DRAK1) was 107 POC and the “Avg. POC” value (Fyn) was 128.5 POC. For the same compound, the “Avg. POC” value (Abl) was 114 POC, the “Avg. POC” value (IGF-1R) was 73 POC and the “Avg. POC” value (Rsk4) was 147 POC. The “Avg. POC” value (Pyk2) was 98.5 POC, the “Avg. POC” value (PKCiota) was 101.5 POC and the “Avg. POC” value (MRCKbeta) was 118.5 POC. For the same compound, the “Avg. POC” value (CK2) was 109 POC, the “Avg. POC” value (Fms) was 87.5 POC and the “Avg. POC” value (JNK1alpha1) was 105 POC. The “Avg. POC” value (CK1delta) was 93 POC, the “Avg. POC” value (DDR2) was 106 POC and the “Avg. POC” value (CK2alpha2) was 104 POC. The “Avg. POC” value (IKKalpha) was 121 POC, the “Avg. POC” value (DAPK3) was 103 POC and the “Avg. POC” value (PKD2) was 113.5 POC. The “Avg. POC” value (NLK) was 99 POC, the “Avg. POC” value (JAK2) was 117 POC and the “Avg. POC” value (CHK1) was 103.5 POC. For the same compound, the “Avg. POC” value (Pim-2) was 122.5 POC, the “Avg. POC” value (AURKA) was 118 POC and the “Avg. POC” value (PAK4) was 97.5 POC. The “Avg. POC” value (PASK) was 111 POC and the “Avg. POC” value (mTOR/FKBP12) was 110.5 POC.
